Data reported in ChEMBL document CHEMBL1250468, “Synthesis of aryl-heteroaryl ureas (AHUs) based on 4-aminoquinoline and their evaluation against the insulin-like growth factor receptor (IGF-1R)” (Bioorg Med Chem, 2010).
pIC50: −log10 of the molar value.

Biological target: Insulin-like growth factor 1 receptor (Homo sapiens, UniProt P08069)
Experiment: Inhibition of recombinant IGF1R by ELISA

Sequence of Insulin-like growth factor 1 receptor (P08069 31-736 limits assumed): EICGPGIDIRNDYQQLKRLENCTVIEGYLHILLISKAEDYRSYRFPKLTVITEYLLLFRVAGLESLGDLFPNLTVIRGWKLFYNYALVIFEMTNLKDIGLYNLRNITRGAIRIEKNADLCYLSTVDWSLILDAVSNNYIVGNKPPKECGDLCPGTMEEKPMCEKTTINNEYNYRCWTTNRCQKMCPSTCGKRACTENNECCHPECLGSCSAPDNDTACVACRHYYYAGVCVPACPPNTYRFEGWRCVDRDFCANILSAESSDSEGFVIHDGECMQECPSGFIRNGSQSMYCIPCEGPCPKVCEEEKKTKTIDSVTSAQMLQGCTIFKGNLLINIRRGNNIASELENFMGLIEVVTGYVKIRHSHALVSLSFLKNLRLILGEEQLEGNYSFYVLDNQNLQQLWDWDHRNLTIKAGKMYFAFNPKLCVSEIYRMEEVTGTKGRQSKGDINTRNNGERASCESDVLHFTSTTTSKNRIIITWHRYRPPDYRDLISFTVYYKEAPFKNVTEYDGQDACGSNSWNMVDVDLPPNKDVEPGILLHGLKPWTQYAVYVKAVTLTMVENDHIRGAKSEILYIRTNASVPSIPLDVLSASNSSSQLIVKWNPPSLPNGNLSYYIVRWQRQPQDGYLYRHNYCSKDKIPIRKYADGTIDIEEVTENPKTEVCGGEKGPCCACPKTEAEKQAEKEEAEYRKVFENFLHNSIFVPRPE
Sequence of Insulin-like growth factor 1 receptor (P08069 741-1367 limits assumed): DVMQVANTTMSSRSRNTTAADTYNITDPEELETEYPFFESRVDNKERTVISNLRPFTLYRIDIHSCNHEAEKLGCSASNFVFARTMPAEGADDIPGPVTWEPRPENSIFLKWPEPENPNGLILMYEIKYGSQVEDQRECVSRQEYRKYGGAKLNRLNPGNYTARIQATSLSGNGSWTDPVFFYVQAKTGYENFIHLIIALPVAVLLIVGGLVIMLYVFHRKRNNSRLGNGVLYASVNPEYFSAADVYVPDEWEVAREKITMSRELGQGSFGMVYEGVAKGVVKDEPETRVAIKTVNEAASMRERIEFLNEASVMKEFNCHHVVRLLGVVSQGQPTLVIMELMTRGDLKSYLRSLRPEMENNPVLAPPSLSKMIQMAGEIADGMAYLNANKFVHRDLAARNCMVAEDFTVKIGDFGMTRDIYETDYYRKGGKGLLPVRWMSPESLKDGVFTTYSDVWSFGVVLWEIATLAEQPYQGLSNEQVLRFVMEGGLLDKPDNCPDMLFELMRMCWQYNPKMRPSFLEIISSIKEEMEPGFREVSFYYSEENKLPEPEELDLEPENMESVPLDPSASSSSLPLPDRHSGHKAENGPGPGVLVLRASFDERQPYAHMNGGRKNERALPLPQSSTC

Row | SMILES | pIC50
1 | COc1ccc(NC(=O)Nc2cc(C(F)(F)F)nc3ccccc23)cc1 | < 4.52
2 | O=C(Nc1ccc(Cl)cc1)Nc1cc(C(F)(F)F)nc2ccccc12 | 4.55
3 | O=C(Nc1ccc(OC(F)(F)F)cc1)Nc1cc(C(F)(F)F)nc2ccccc12 | 5.17
4 | O=C(Nc1ccc([N+](=O)[O-])cc1)Nc1cc(C(F)(F)F)nc2ccccc12 | 4.57
5 | O=C(Nc1ccc(-c2ncccn2)cc1)Nc1cc(C(F)(F)F)nc2ccccc12 | 4.71
6 | O=C(Nc1cccc(-c2ncccn2)c1)Nc1cc(C(F)(F)F)nc2ccccc12 | < 4.52
7 | Cc1cncc(Oc2ccc(NC(=O)Nc3cc(C(F)(F)F)nc4ccccc34)cc2)n1 | 5.28
8 | COc1ccc(Cl)cc1NC(=O)Nc1cc(Cl)nc2ccccc12 | 4.83
9 | COc1ccc(NC(=O)Nc2cc(Cl)nc3ccccc23)cc1Cl | < 4.52
10 | COc1ccc(NC(=O)Nc2cc(Cl)nc3ccccc23)cc1 | < 4.52
11 | O=C(Nc1ccc(Cl)cc1)Nc1cc(Cl)nc2ccccc12 | 4.68
12 | O=C(Nc1ccc(OC(F)(F)F)cc1)Nc1cc(Cl)nc2ccccc12 | 4.67
13 | O=C(Nc1ccc(-c2ncccn2)cc1)Nc1cc(Cl)nc2ccccc12 | < 4.52
14 | O=C(Nc1cccc(-c2ncccn2)c1)Nc1cc(Cl)nc2ccccc12 | < 4.52
15 | Cc1cncc(Oc2ccc(NC(=O)Nc3cc(Cl)nc4ccccc34)cc2)n1 | < 4.52
16 | COc1ccc(Cl)cc1NC(=O)Nc1cc(=O)[nH]c2ccccc12 | 5.19
17 | COc1ccc(Cl)cc1NC(=O)Nc1cc(C)nc2ncccc12 | 4.61
18 | Cc1cncc(Oc2ccc(NC(=O)Nc3cc(C)nc4ncccc34)cc2)n1 | 4.90
19 | COc1ccc(Cl)cc1NC(=O)Nc1cc(C)nc2c1CCCN2 | 4.69
20 | COc1ccc(Cl)cc1NC(=O)Nc1cc(C)nc2cnccc12 | < 4.52
21 | COc1cc(OC)c(NC(=O)Nc2cc(C)nc3cnccc23)cc1Cl | < 4.52
22 | Cc1cc(NC(=O)Nc2ccc(Cl)cc2)c2ccccc2n1 | < 4.52
23 | Cc1cc(NC(=O)Nc2ccc(-c3ncccn3)cc2)c2ccccc2n1 | < 4.52
24 | Cc1cc(NC(=O)Nc2cccc(-c3ncccn3)c2)c2ccccc2n1 | < 4.52
25 | Cc1cncc(Oc2ccc(NC(=O)Nc3cc(C)nc4ccccc34)cc2)n1 | 5.25
26 | COc1ccc(Cl)cc1NC(=O)Nc1cc(C)nc2ccccc12 | 4.73
27 | COc1ccc(NC(=O)Nc2cc(C)nc3ccccc23)cc1Cl | < 4.52
